According to the NIST ThermoML archive (doi:10.1016/j.jct.2016.07.029):

Test: excess molar enthalpy (molar enthalpy of mixing); xn = mol fraction of the nth substance listed
Settings: 100 kPa, Liquid, Calvet calorimetry

[Zn] [zinc] + [Ga]
Settings | excess molar enthalpy [kcal/mol]
722 K, x1 = 0.0966 | 0.125
722 K, x1 = 0.132 | 0.161
722 K, x1 = 0.1679 | 0.205
722 K, x1 = 0.237 | 0.272
722 K, x1 = 0.2478 | 0.255
722 K, x1 = 0.2796 | 0.304
722 K, x1 = 0.3239 | 0.337
722 K, x1 = 0.3424 | 0.323
722 K, x1 = 0.3664 | 0.357
722 K, x1 = 0.4104 | 0.377
722 K, x1 = 0.4155 | 0.361
722 K, x1 = 0.4432 | 0.385
722 K, x1 = 0.4746 | 0.378
722 K, x1 = 0.4747 | 0.393
722 K, x1 = 0.5057 | 0.402
722 K, x1 = 0.5202 | 0.377
722 K, x1 = 0.5368 | 0.404
722 K, x1 = 0.5565 | 0.378
722 K, x1 = 0.562 | 0.406
722 K, x1 = 0.5901 | 0.379
722 K, x1 = 0.6188 | 0.375
722 K, x1 = 0.6444 | 0.37
722 K, x1 = 0.6659 | 0.363
722 K, x1 = 0.6846 | 0.357
722 K, x1 = 0.761 | 0.326
722 K, x1 = 0.8068 | 0.305
722 K, x1 = 0.8495 | 0.256
722 K, x1 = 0.9004 | 0.182
722 K, x1 = 0.948 | 0.102
923 K, x1 = 0.07739 | 0.092
923 K, x1 = 0.1307 | 0.149
923 K, x1 = 0.1593 | 0.182
923 K, x1 = 0.2353 | 0.252
923 K, x1 = 0.2736 | 0.284
923 K, x1 = 0.3154 | 0.313
923 K, x1 = 0.3262 | 0.315
923 K, x1 = 0.3711 | 0.346
923 K, x1 = 0.3774 | 0.352
923 K, x1 = 0.4101 | 0.361
923 K, x1 = 0.4408 | 0.38
923 K, x1 = 0.4434 | 0.384
923 K, x1 = 0.4743 | 0.395
923 K, x1 = 0.4896 | 0.398
923 K, x1 = 0.4981 | 0.403
